“And” between values parts separate entries of the source, which are not always exact repeats. Equal values may be shown once.
What was measured:
[1] = Gamma scintigraphy of 99mTc-DTPA radiolabeled treprostinil sodium inhaled via AERx Essence System or Nebu-Tec Optineb nebulizer, two-way crossover, 14 healthy male subjects; assay type: in vivo, human; details: for Calculated Lung Dose: monosodium salt; for Dose (calculated dose to lung): Median
Source text: This was an open label study conducted in a single-center, using a randomized, two-way crossover design. Sixteen healthy adult male subjects were to be enrolled to receive study treatments. Upon provision of written informed consent, each study candidate underwent a pre-study evaluation and screening to determine eligibility to participate.
On each of two dosing days, eligible subjects underwent dosing with ^99mTc-labeled treprostinil sodium using either the AERx Essence System or the Nebu-Tec Optineb nebulizer. Following their initial study dose, subjects underwent a washout period of approximately 48 hours before completing a second (crossover) study dose.
Immediately following each study dose, subjects underwent gamma scintigraphy and multiple samplings of venous blood to characterize treprostinil lung deposition and plasma pharmacokinetics.
Subjects also underwent a Krypton-81m (^81mKr) gas ventilation imaging procedure. This procedure could have been performed on any dosing day followed by a 30 minute washout before any of the aerosol dosing procedures, if there were logistical/scheduling problems, ventilation imaging could have been done after dosing. Alternatively the ^81mKr ventilation scan could have been performed on a separate visit. Additionally transmission images were also acquired this could have been performed on any dosing day prior to any of the aerosol dosing procedures or on a separate visit
A single “bulk” treprostinil sodium formulation (600 μg/mL) was used for both the Nebu-Tec Optineb nebulizer and the AERx Essence. The bulk drug solutions were diluted by the addition of ^99mTc-DTPA (2000 MBq/mL) at a ratio of 19:1, i.e. 0.05 mL of ^99mTc-DTPA was added to 0.950 mL of bulk drug solution. Each mL of the radiolabeled drug solutions therefore contained 100 MBq of ^99mTc-DTPA and 570 μg of treprostinil. The radiolabel ^99mTc as ^99mTc-DTPA was acquired from an approved supplier (i.e., the Medical Physics Department, University Hospital of Wales, Heath, Cardiff [Manufacturers License Number: MS/IMP18523]).
In this study, the radiolabel marker (^99mTc-DTPA) deposition profiles obtained following administration of a radiolabeled treprostinil sodium formulation will be evaluated using gamma to assess the performance for the two delivery systems. Gamma scintigraphy offers a precise and accurate method of evaluating the deposition of an inhaled radiolabeled aerosol in the oropharynx and lung.
To compare the emitted dose, delivered lung dose, and the central-to-peripheral (sC/P) lung deposition of radiolabeled treprostinil sodium delivered via the AERx Essence System versus the Nebu-Tec Optineb nebulizer using gamma scintigraphy.
In addition the following secondary efficacy variables were determined, the dose (μg) of treprostinil deposited in the lung, the percent dose (emitted and loaded) of radiolabeled treprostinil sodium in the oropharyngeal region from both devices, the percent loaded dose remaining in both devices and associated equipment e.g. mouthpiece.
Scintigraphic data were used to determine the fraction of the loaded dose delivered to the lung which was subsequently utilised to estimate the lung dose in terms of μg of Treprostinil. For AERx, the calculation of lung dose was derived by normalising the emitted dose to lung for the fraction (%) of the loaded dose retained post-administration i.e. within the device and dosage forms. The actual dose within the AERx strips (a single dose consisted of two strips) was calculated from the nominal treprostinil concentration adjusted for the actual concentration determined by HPLC assay of the stock radiolabeled drug solutions on each dosing day (see Table 14.2.1.5).
The Optineb device contained a drug reservoir (nebuliser cup) from which each dose (six separate puffs) was metered. To determine the dose available to the subject an in vitro test to collect a single emitted dose (ED) was performed for each device following subject dosing.

[2] = male, human, in vivo
[3] = Safety and tolerability of inhaled treprostinil sodium (adverse events, laboratory, vital signs, ECG, spirometry), 14 healthy male subjects

SMILES: CCCCC[C@H](O)CC[C@@H]1[C@H]2Cc3cccc(OCC(=O)[O-])c3C[C@H]2C[C@H]1O.[Na+] [treprostinil, (1R,2R,3aS,9aS)-[[2,3,3a,4,9,9a-Hexahydro-2-hydroxyl-1-[(3S)-3-hydroxyoctyl]-1H-benz[f]inden-5-yl]oxy]acetic acid monosodium salt]
- Greater treprostinil lung dose for AERx than for the nebulizer ([1]; AERx vs nebulizer): 20%
- Calculated Lung Dose ([1]; via AERx, Max, listed as Treprostinil): 30.76 µg
- Calculated Lung Dose ([1]; via AERx, Max): 30.756 µg
- Calculated Lung Dose ([1]; via AERx, Mean, listed as Treprostinil): 26.07 µg
- Calculated Lung Dose ([1]; via AERx, Mean): 26.07 µg and 26.072 µg
- Dose (calculated dose to lung) ([1]; via AERx): 27.383 µg
- Calculated Lung Dose ([1]; via AERx, Min, listed as Treprostinil): 12.77 µg
- Calculated Lung Dose ([1]; via AERx, Min): 12.770 µg
- Calculated Lung Dose ([1]; via Optineb, Max, listed as Treprostinil): 30.69 µg
- Calculated Lung Dose ([1]; via Optineb, Max): 30.691 µg
- Calculated Lung Dose ([1]; via Optineb, Mean, listed as Treprostinil): 19.58 µg
- Calculated Lung Dose ([1]; via Optineb, Mean): 19.58 µg and 19.579 µg
- Dose (calculated dose to lung) ([1]; via Optineb): 18.470 µg
- Calculated Lung Dose ([1]; via Optineb, Min, listed as Treprostinil): 9.30 µg
- Calculated Lung Dose ([1]; via Optineb, Min): 9.296 µg
- Adverse events considered possibly related to the study medication [2]: 15
- Adverse events considered probably related to study medication [2]: 11
- Adverse events considered unlikely related to the study medication [2]: 1
- Adverse events recorded as mild in intensity [2]: 23
- Adverse events recorded as moderate in intensity [2]: 4
- Number of Subjects (% brackets) with CHEST DISCOMFORT [2]: 2 (14.3)
- Number of Subjects (% brackets) with COUGH [2]: 6 (42.9)
- Number of Subjects with CHEST DISCOMFORT, relationship POSSIBLE [2]: 1
- Number of Subjects with CHEST DISCOMFORT, relationship PROBABLE [2]: 1
- Number of Subjects with CHEST DISCOMFORT, relationship UNLIKELY [2]: 0
- Number of Subjects with COUGH, relationship UNLIKELY [2]: 0
- Number of Subjects with DIZZINESS, relationship POSSIBLE [2]: 2
- Number of Subjects with DIZZINESS, relationship PROBABLE [2]: 0
- Number of Subjects with DIZZINESS, relationship UNLIKELY [2]: 0
- Number of Subjects with DRY THROAT, relationship POSSIBLE [2]: 1
- Number of Subjects with DRY THROAT, relationship PROBABLE [2]: 0
- Number of Subjects with DRY THROAT, relationship UNLIKELY [2]: 0
- Number of Subjects with DYSPNOEA, relationship POSSIBLE [2]: 0
- Number of Subjects with DYSPNOEA, relationship PROBABLE [2]: 1
- Number of Subjects with DYSPNOEA, relationship UNLIKELY [2]: 0
- Number of Subjects with HEADACHE, relationship PROBABLE [2]: 0
- Number of Subjects with HEADACHE, relationship UNLIKELY [2]: 0
- Number of Subjects with PHARYNG[…], relationship POSSIBLE [2]: 1
- Number of Subjects with PHARYNG[…], relationship PROBABLE [2]: 0
- Number of Subjects with PHARYNG[…], relationship UNLIKELY [2]: 0
- Number of Subjects with PLEURITIC PAIN, relationship POSSIBLE [2]: 0
- Number of Subjects with PLEURITIC PAIN, relationship PROBABLE [2]: 1
- Number of Subjects with PLEURITIC PAIN, relationship UNLIKELY [2]: 0
- Number of Subjects with SYNCOPE VASOVAGAL, relationship POSSIBLE [2]: 1
- Number of Subjects with SYNCOPE VASOVAGAL, relationship PROBABLE [2]: 0
- Number of Subjects with SYNCOPE VASOVAGAL, relationship UNLIKELY [2]: 0
- Total treatment emergent adverse events [2]: 27
- Vaso-vegal episode, duration [2]: 14 min
- Vaso-vegal episode, time of occurrence after administration [2]: 22 min
- Changes in laboratory parameters ([3]; biochemistry, hematology, urinalysis): no clinically-significant changes
- Serious Adverse Events (SAE's) or Suspected Unexpected Serious Adverse Reactions (SUSAR's) ([3]; both devices): no Serious Adverse Events
- Tolerability in healthy subjects ([3]; for inhalation): well-tolerated
- Changes in laboratory parameters, physical examination, vital signs, respiratory function or ECGs ([3]; human, in vivo): no clinically-significant changes
- Changes in vital signs (blood pressure, pulse and oral temperature) ([3]; human, in vivo, po): no clinically-significant changes
- Number of Subjects (% brackets) with […] ([3]; via AERx Essence): 0
- Number of Subjects (% brackets) with […] ([3]; via Nebu-Tec Optineb): 1 (7.1)
- Number of Subjects with […], relationship POSSIBLE ([3]; via Nebu-Tec Optineb): 0
- Number of Subjects with […], relationship PROBABLE ([3]; via Nebu-Tec Optineb): 0
- Number of Subjects with […], relationship UNLIKELY ([3]; via Nebu-Tec Optineb): 1

From US20120177693A1, “DEEP LUNG PULMONARY DELIVERY OF TREPROSTINIL” (Aradigm Corporation, priority 2008, published 2012)
